Test results as given in patent publication US8865741B2, “Aminoindane compounds and use thereof in treating pain” (Asana Biosciences, LLC, priority 2011, dated 2014).

Legend:
[1] = test system: sodium channel in hTRPV1-N1E115 cells; assay: FLIPR membrane potential assay of sodium channel response in hTRPV1-N1E115 cells, with (47° C.) or without (25° C.) heat activation of hTRPV1; assay type: cell-based; conditions: for hTRPV1-N1E Nav 0.1 mM (% inhibition) 25° C. / hTRPV1-N1E Nav 1 mM (% inhibition) 25° C.: 25° C. (no heat activation of hTRPV1); for hTRPV1-N1E Nav 0.1 mM (% inhibition) 47° C. / hTRPV1-N1E Nav 1 mM (% inhibition) 47° C.: 47° C. (heat activation of hTRPV1); for IC50 / hTRPV1-N1E Nav 0.1 mM (% inhibition) 47° C., DMSO: 47° C.; for IC50: class symbols, read-out: hTRPV1-N1E IC50 (μM) 47° C.
Source text: In one embodiment, a modified FLIPR® (Fluorometric Imaging Plate Reader) based assay system was developed which is capable of discriminating between non-specific versus hTRPV1-mediated entry of test compounds. Advantageously, the assay system utilizes heat activated opening of hTRPV1 channels followed by an assessment of internal sodium channel block. The assay allows a permanently charged compound to selectively enter through opened hTRPV1 channels and that compound's potency in inhibiting sodium channels from the cytoplasm side of the same cell can be assessed and quantified.
The assay is readily performed in multi-well assay plates into which cells in growth media are added and incubated under conditions which permit the formation of a confluent monolayer over a period of hours prior to the start of the assay. Conventional culture media and conditions may be utilized. Duplicate cell assay plates are prepared for each experiment.
The spent media from the cell seeded plates is removed on the day of the assay and replaced with Membrane potential Dye-Blue (Molecular Devices). The dye was prepared in assay buffer following manufacturer's instructions. The dye-loaded plate is incubated at room temperature (about 25° C.) for about 30 minutes in order to pre-load the cells with dye. Optionally, the cells may be loaded with the dye simultaneously with adding the test compounds.
The test compounds are diluted in the Assay Buffer and added to each well of a specific 384-well ‘compound plate’, which serves as a source plate for compound addition using the FLIPR® platform. The concentration of compounds in the compound-plate was adjusted to achieve the desired final concentration when added to the cells in the ‘cell-plate’. After completion of the dye incubation period, the dye loaded cell-plates and the compound source plates are inserted into the FLIPR® Tetra™ device with a 384 FLIPR® tip box (Molecular Devices, Inc.) according to manufacturer's instructions. The compounds are robotically added to the dye loaded cell-plates using software integral to the FLIPR® Tetra™ instrument.
Immediately following compound addition, hTRPV1 is activated, in one of the duplicate cell plates, by heating. Specifically, entire multi-well plate containing the compound-cells mixture is incubated at 47° C. for 10 minutes, after which they are returned to room temperature (about 25° C.) for a further 30 minutes. Heat activation of hTRPV1 was omitted from the replicate cell plate which was simply maintained at room temperature for the entire 40 minutes.
A membrane potential response is elicited in the dye- and compound-loaded cells by the addition of veratridine which is a known sodium channel ‘agonist’. As illustrated in an example herein, an agonist plate containing veratridine (Sigma) is prepared in advance and is inserted into suitable devices such as, e.g., the FLIPR® TETRA® device for a “2nd addition” as instructed by the manufacturer. The concentration of veratridine in the ‘agonist plate’ was adjusted to achieve a final concentration of 100 μM when added to the cells in the cell-plate. Final concentrations of veratridine greater or lesser than 100 μM may also be used but the signal measured by the FLIPR®^Tetra™ device or another suitable device may vary accordingly.
The exposure of the cells in the cell-plate to veratridine induces sodium channels in the cells to open and the resulting ion flux produces a membrane potential depolarization that is detected as a fluorescence signal by the FLIPR® ^Tetra™ Device. The activity of test compounds is determined by their ability to attenuate the veratridine-induced fluorescence signal, the most promising compounds are those that show an enhanced activity in the heat-activated cell plate over the non-heat-activated cell plate. […]

[2] = test system: Male Sprague Dawley (SD) rats; assay: In vivo assay of mechanical nociception (rat pinch model, perisciatic injection); conditions: test compound 0.5%, lidocaine 2%, total injection 100 μL, perisciatic

Row | Compound | IC50 [1] [µM] | hTRPV1-N1E Nav 0.1 mM (% inhibition) 25° C. [1] [%] | hTRPV1-N1E Nav 0.1 mM (% inhibition) 47° C. [1] | hTRPV1-N1E Nav 1 mM (% inhibition) 25° C. [1] | hTRPV1-N1E Nav 1 mM (% inhibition) 47° C. [1] | Average Time of Analgesia [2] [h] | hTRPV1-N1E Nav 0.1 mM (% inhibition) 25° C., DMSO [1] [%] | hTRPV1-N1E Nav 0.1 mM (% inhibition) 47° C., DMSO [1]
1 | C[N+]1(C)CCCCC1CN(c1cccc(F)c1)C1Cc2ccccc2C1.[I-] (stereo not shown) [Example 31, 1,1-Dimethyl-2-[((3-fluorophenyl)(indan-2-yl)amino)methyl]piperidinium iodide] | – | 3.8 | 62.6 (N = 2) % | Insoluble | Insoluble | – | – | –
2 | Cc1cccc(N(CC2CCCC[N+]2(C)C)C2Cc3ccccc3C2)c1.[I-] (stereo not shown) [Example 29, 1,1-Dimethyl-2-[((indan-2-yl)(3-methylphenyl)amino)methyl]piperidinium iodide] | – | 68.9 | 82.9 (N = 2) % | 64.6 (N = 2) % | 75.3 (N = 2) % | – | – | –
3 | C[N+]1(C)CCCCC1CCN(c1nccs1)C1Cc2ccccc2C1.[I-] (stereo not shown) [Example 39, 1,1-dimethyl-2-[2-((indan-2-yl)(thiazol-2-yl)amino)ethyl]piperidinium iodide] | – | 10.6 | 11.3 (N = 2) % | 31.3 (N = 2) % | 62.4 (N = 2) % | – | – | –
4 | CC[N+]1(CC)CCCCC1CN(c1ccc(C)cc1)C1Cc2ccccc2C1.[I-] (stereo not shown) [Example 30, 1,1-Diethyl-2-[((indan-2-yl)(4-methylphenyl)amino)methyl]piperidinium iodide] | – | 59.4 | 97.2 (N = 2) % | Insoluble | Insoluble | – | – | –
5 | CCC[N+]1(CCC)CCCC[C@@H]1CCN(c1ccccc1)C1Cc2ccccc2C1.[I-] [Example 12, (R)-1,1-Dipropyl-2-[2-((indan-2-yl)(phenyl)amino)ethyl]piperidinium iodide] | – | – | – | – | – | – | 49 | 87 (N = 4, DMSO) %
6 | CC[N+]1(CC)CCCCC1CCN(c1ccc(F)cc1)C1Cc2ccccc2C1.[I-] (stereo not shown) [Example 18, 1,1-diethyl-2-[2-((4-fluorophenyl)(indan-2-yl)amino)ethyl]piperidinium iodide] | 10 to 100 | 0 | 86.9 (N = 3) % | 0 (N = 3) % | 38.2 (N = 3) % | – | – | –
7 | Cc1ccccc1N(CCC1CC[N+](C)(C)CC1)C1Cc2ccccc2C1.[Br-] [Example 40, 1,1-dimethyl-4-[2-((indan-2-yl)(2-methylphenyl)amino)ethyl]piperidinium bromide] | 10 to 100 | 34.3 | – | – | – | – | – | –
8 | CCC[N+]1(CCC)CCCC[C@H]1CCN(c1ccccc1)C1Cc2ccccc2C1.[I-] [Example 1, (S)-1,1-dipropyl-2-[2-((indan-2-yl)(phenyl)amino)ethyl]piperidinium iodide] | – | – | – | – | – | – | 56 | 87 (N = 4, DMSO) %
9 | Cc1ccccc1N(CCC1CCCC[N+]12CCOCC2)C1Cc2ccccc2C1.[Cl-] (stereo not shown) [Example 41, 7-[2-((indan-2-yl)(2-methylphenyl)amino)ethyl]-3-oxa-6-azaspiro[5.5]undecan-6-ium chloride] | 10 to 100 | 8.3 | – | – | – | – | – | –
10 | C[N+]1(C)CCCCC1CCN(c1ccc2c(c1)OCCO2)C1Cc2ccccc2C1.[I-] (stereo not shown) [Example 42, 1,1-dimethyl-2-[2-((2,3-dihydrobenzo[b][1,4]dioxin-6-yl)(indan-2-yl)amino)ethyl]piperidinium iodide] | – | 0 | 64.9 (N = 2) % | – | – | – | – | –
11 | CC[N+]1(CC)CCCCC1CCCN(c1ccccc1)C1Cc2ccccc2C1.[I-] (stereo not shown) [Example 26, 1,1-Diethyl-2-[3-((indan-2-yl)(phenyl)amino)propyl]piperidinium iodide] | 10 to 100 | 44.6 | 64.7 (N = 2) % | Insoluble | Insoluble | – | – | –

Second part, led by results:

Row | IC50 [1] [µM] | Compound | hTRPV1-N1E Nav 0.1 mM (% inhibition) 25° C. [1] [%] | hTRPV1-N1E Nav 0.1 mM (% inhibition) 47° C. [1] | hTRPV1-N1E Nav 1 mM (% inhibition) 25° C. [1] | hTRPV1-N1E Nav 1 mM (% inhibition) 47° C. [1] | Average Time of Analgesia [2] [h] | hTRPV1-N1E Nav 0.1 mM (% inhibition) 25° C., DMSO [1] [%] | hTRPV1-N1E Nav 0.1 mM (% inhibition) 47° C., DMSO [1]
12 | 10 to 100 | C[N+]1(C)CCCCC1CCN(c1ccccc1F)C1Cc2ccccc2C1.[I-] (stereo not shown) [Example 4, 1,1-dimethyl-2-[2-((2-fluorophenyl)(indan-2-yl)amino)ethyl]piperidinium iodide] | 0 | 94.7 (N = 3) % | 0 (N = 3) % | 67.0 (N = 3) % | 1 | – | –
13 | 10 to 100 | Cc1cccc(N(CCC2CCCC[N+]2(C)C)C2Cc3ccccc3C2)n1.[I-] (stereo not shown) [Example 47, 1,1-Dimethyl-2-[2-((indan-2-yl)(6-methylpyridine-2-yl)amino)ethyl]piperidinium iodide] | 30.7 | 79.5 (N = 2) % | – | – | – | – | –
14 | 10 to 100 | C[N+]1(C)CCCCC1CCN(c1ccccn1)C1Cc2ccccc2C1.[I-] (stereo not shown) [Example 37, 1,1-dimethyl-2-[2-((indan-2-yl)(pyridine-2-yl)amino)ethyl]piperidinium iodide] | 21.5 | 60.7 (N = 2) % | 59.5 (N = 2) % | 24.0 (N = 2) % | – | – | –
15 | 10 to 100 | C[N+]1(C)CCCC[C@@H]1CN(c1ccccc1)C1Cc2ccccc2C1 [Example 33, (R)-1,1-Dimethyl-2-[((indan-2-yl)(phenyl)amino)methyl]piperidinium iodide] | – | – | – | – | – | – | –
16 | 10 to 100 | CC[N+]1(CC)CCCCC1CCN(c1cccc(C)c1)C1Cc2ccccc2C1.[I-] (stereo not shown) [Example 21, 1,1-Diethyl-2-[2-((indan-2-yl)(3-methylphenyl)amino)ethyl]piperidinium iodide] | 44.7 | 80.2 (N = 3) % | 58.2 (N = 3) % | 64.3 (N = 3) % | – | – | –
17 | 10 to 100 | Cc1cccc(N(CCC2CCCC[N+]2(C)C)C2Cc3ccccc3C2)n1.[Br-] (stereo not shown) [Example 48, 1,1-Dimethyl-2-[2-((indan-2-yl)(6-methylpyridine-2-yl)amino)ethyl]piperidinium bromide] | 29.6 | – | – | – | – | – | –
18 | 1 to 10 | Cc1ccccc1N(CC[C@H]1CCCC[N+]1(C)C)C1Cc2ccccc2C1 [Example 51, (R)-1,1-Dimethyl-2-[2-((indan-2-yl)(2-methylphenyl)amino)ethyl]piperidinium chloride] | – | – | – | – | – | – | –
19 | 10 to 100 | C[N+]1(C)CCCCC1CCN(c1ccc(F)cc1)C1Cc2ccccc2C1.[I-] (stereo not shown) [Example 15, 1,1-Dimethyl-2-[2-((4-fluorophenyl)(indan-2-yl)amino)ethyl]piperidinium iodide] | 2.8 | 75.2 (N = 3) % | 0.7 (N = 3) % | 35.0 (N = 3) % | – | – | –
